# Reference: US10420740B2, “Baclofen formulations and methods for making same” (SAOL INTERNATIONAL LIMITED, priority 2011, dated 2019)
# Experiments:
# [1] = Comparison of R isomer and racemic baclofen for solubility, stability and pH; assay type: physicochemical; settings: data not shown
# From the text: Accordingly, the Examples presented herein, which employed a racemic mixture, are also applicable to the L-isomer […].
# [2] = Rotarod (impaired motor skills) after intrathecal delivery to rats; assay type: in vivo; settings: equivalent doses, data not shown
# Procedure: Studies were performed to examine the effects of different baclofen compositions delivered intrathecally to rats. In one study, the therapeutic response mediated by spinal GABA-b receptors (thermal analgesia) with a nonspecific side effect (impaired motor skills on the rotarod) caused by L or DL-baclofen were compared. Equivalent doses of L-baclofen and DL-baclofen (adjusted to deliver the same amount of L-baclofen) produced very similar analgesic activity in the thermal nociception assay, while D-baclofen was ineffective (data not shown).
# [3] = reported by some sources; equilibrium with particulate baclofen present; cited from earlier work
# [4] = Stability of baclofen in sulfate or phosphate solutions over 9 weeks; assay type: physicochemical; settings: phosphate or sulfate buffer with NaCl, pH 6, aqueous buffer
# Procedure: The formulations were stored at 37° C., ambient temperature, and 4° C. over 9 weeks. pH, drug concentration, and 4-CPP were measured. Physical properties, such as particulate, precipitation, color and the like were observed.
# [5] = pH profile of baclofen prior to steam sterilization and 4-CPP impurity levels post-steam sterilization; assay type: physicochemical; set-up: unit not given here; settings: 4-CPP post-steam sterilization
# From the text: In some embodiments, the present application provides methods and baclofen formulations having low 4-CPP concentrations by controlling the pH of the baclofen solution prior to steam sterilization, where the pH is in the range of between about 4.0 to about 7.0, the amount of 4-CPP formed is reduced, when the pH is raised to between about 5.0 to about 7.0 after heat sterilization. In some embodiments, the 4-CPP impurity levels are low at a pH of between about 4.0 to about 4.5. The pH profile of the baclofen, prior to steam sterilization and the 4-CPP impurity levels post-steam sterilization are shown below in Table A.
# [6] = therapeutically effective intrathecal concentrations, injected into the intrathecal space of a patient; cited from earlier work
smiles,measurement,setting,value
"NC[C@H](CC(=O)O)c1ccc(Cl)cc1 (single isomer, unassigned) [R isomer]","solubility, stability and pH relative to racemic mixtures of baclofen",[1],behave essentially the same
NC[C@H](CC(=O)O)c1ccc(Cl)cc1 [D-baclofen],motor impairment on the rotarod,[2],no significant effect
"NCC(CC(=O)O)c1ccc(Cl)cc1 (stereo not shown) [Baclofen, 4-amino-3-(p-chlorophenyl)butyric acid]",upper limit on room temperature aqueous solubility,[3],about 4 mg/mL
same,solubility at 9 weeks,[4],≥ 4000 µg/mL
same,Impurity Level of 4-CPP,[5]; pH 4.0 prior to steam sterilization,1.7
same,Impurity Level of 4-CPP,[5]; pH 4.2 prior to steam sterilization,1.3
same,Impurity Level of 4-CPP,[5]; pH 4.4 prior to steam sterilization,1.1
same,Impurity Level of 4-CPP,[5]; pH 4.6 prior to steam sterilization,0.7
same,Impurity Level of 4-CPP,[5]; pH 4.8 prior to steam sterilization,0.5
same,Impurity Level of 4-CPP,[5]; pH 5.0 prior to steam sterilization,0.4
same,Impurity Level of 4-CPP,[5]; pH 5.2 prior to steam sterilization,0.4
same,Impurity Level of 4-CPP,[5]; pH 5.4 prior to steam sterilization,0.5
same,Impurity Level of 4-CPP,[5]; pH 5.6 prior to steam sterilization,0.6
same,Impurity Level of 4-CPP,[5]; pH 5.8 prior to steam sterilization,0.7
same,Impurity Level of 4-CPP,[5]; pH 6.0 prior to steam sterilization,0.8
same,Impurity Level of 4-CPP,[5]; pH 6.2 prior to steam sterilization,0.9
same,Impurity Level of 4-CPP,[5]; pH 6.4 prior to steam sterilization,1.1
same,Impurity Level of 4-CPP,[5]; pH 6.6 prior to steam sterilization,1.2
same,Impurity Level of 4-CPP,[5]; pH 6.8 prior to steam sterilization,1.4
same,Impurity Level of 4-CPP,[5]; pH 7.0 prior to steam sterilization,1.5
same,"plasma concentrations, intrathecal relative to oral administration",[6],100 times less
NC[C@H](CC(=O)O)c1ccc(Cl)cc1 [L-baclofen],motor impairment on the rotarod,[2],statistically less motor impairment on the rotarod than DL-baclofen
